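Method: 48-hour compound exposure of cells in 96-well plates, five concentrations, linear interpolation of endpoints. GI50: concentration for 50% inhibition of growth.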 The source made the active and inactive calls. Rule as the data show it: active = GI50 up to about 1.1 µM and inactive = higher.
Columns and labels:
Assay in all cases: NCI tumour cell line growth inhibition, 48 h
[1] = system: 786-0
[2] = system: A498
[3] = system: BT-549
[4] = system: HCT-116
[5] = system: HCT-15
[6] = system: HL-60
[7] = system: HT-29
[8] = system: KM12
[9] = system: LOX IMVI
[10] = system: M14
[11] = system: NCI-H460
[12] = system: OVCAR-3
[13] = system: OVCAR-8
[14] = system: SF-268
[15] = system: SK-MEL-5
[16] = system: SN12C
[17] = system: SNB-19
[18] = system: SNB-75
[19] = system: UACC-62

Compound | GI50 [1] | GI50 [2] | GI50 [3] | GI50 [4] | GI50 [5] [µM] | GI50 [6] | GI50 [7] | GI50 [8] | GI50 [9] | GI50 [10] | GI50 [11] | GI50 [12] | GI50 [13] | GI50 [14] | GI50 [15] | GI50 [16] | GI50 [17] | GI50 [18] | GI50 [19]
CCNC(=S)NNC(=O)C12CC3CC(CC(C3)C1)C2 | > 100 µM (inactive) | > 100 µM (inactive) | > 100 µM (inactive) | > 100 µM (inactive) | > 100 | > 100 µM (inactive) | > 100 µM (inactive) | > 100 µM (inactive) | > 100 µM (inactive) | > 100 µM (inactive) | > 100 µM (inactive) | > 100 µM (inactive) | > 100 µM (inactive) | > 100 µM (inactive) | > 100 µM (inactive) | > 100 µM (inactive) | > 100 µM (inactive) | 64.1 µM (inactive) | > 100 µM (inactive)
COc1ccc([C@H]2[C@H]3COC(=O)[C@H]3C(C#N)=C3Sc4ccccc4N32)cc1 | 36.7 µM (inactive) | 43.7 µM (inactive) | 5.37 µM (inactive) | 21.7 µM (inactive) | 25.8 |  | 12.4 µM (inactive) | 27.2 µM (inactive) | 20.2 µM (inactive) | 56.5 µM (inactive) | 25.4 µM (inactive) | 16.4 µM (inactive) | 51.3 µM (inactive) | 71.6 µM (inactive) | 21.1 µM (inactive) | 15.1 µM (inactive) | 48.3 µM (inactive) | 9.64 µM (inactive) | 28.8 µM (inactive)
c1ccc2/c3[nH]/c(c2c1)=N\c1ccc(cc1)-c1nc2cc(ccc2o1)/N=c1/[nH]/c(c2ccccc12)=N/c1ccc2nc(oc2c1)-c1ccc(cc1)\N=3 | > 100 µM (inactive) | > 100 µM (inactive) | > 100 µM (inactive) | > 100 µM (inactive) | > 100 | > 100 µM (inactive) | 49.4 µM (inactive) | 81.1 µM (inactive) | > 100 µM (inactive) | > 100 µM (inactive) | 51.8 µM (inactive) |  |  | > 100 µM (inactive) | > 100 µM (inactive) | > 100 µM (inactive) | > 100 µM (inactive) |  | 95.3 µM (inactive)
COc1ccc(CN2C(=O)CCC/C=C\[C@H]2CI)cc1 | 14 µM (inactive) | 12.5 µM (inactive) | 19.5 µM (inactive) | 11.7 µM (inactive) | 12.4 |  | 9.71 µM (inactive) | 11 µM (inactive) | 17.6 µM (inactive) | 10.7 µM (inactive) | 13.1 µM (inactive) | 11.6 µM (inactive) | 14.4 µM (inactive) | 13.4 µM (inactive) | 12.6 µM (inactive) | 14 µM (inactive) | 13.2 µM (inactive) | 2.41 µM (inactive) | 10.8 µM (inactive)
CCN(CC)CCNc1ccc2ncn3c4c(OC)ccc(OC)c4c(=O)c1c23 | 11.5 µM (inactive) | 93.3 µM (inactive) | > 10 µM (inactive) | 0.587 µM (active) | 16 |  | > 10 µM (inactive) | 9.16 µM (inactive) |  | 18.7 µM (inactive) | 4.4 µM (inactive) | 30.3 µM (inactive) | 10.8 µM (inactive) | 3.24 µM (inactive) | 17.2 µM (inactive) | > 10 µM (inactive) | 20 µM (inactive) | 10.6 µM (inactive) | 22.6 µM (inactive)
O=C1c2cscc2C(=O)C1(O)O | 61.5 µM (inactive) | > 100 µM (inactive) | 31.5 µM (inactive) | 21.3 µM (inactive) | 45.8 | 26.1 µM (inactive) | 70 µM (inactive) | > 100 µM (inactive) | > 100 µM (inactive) | 22.2 µM (inactive) | > 100 µM (inactive) | 25.2 µM (inactive) | 32.9 µM (inactive) | > 100 µM (inactive) | > 100 µM (inactive) | 20 µM (inactive) | > 100 µM (inactive) |  | > 100 µM (inactive)
Cc1ccc(S(=O)(=O)NCCCCC(N)C(=O)O)cc1 (stereo not given) | > 100 µM (inactive) | > 100 µM (inactive) | > 100 µM (inactive) | > 100 µM (inactive) | > 100 |  | > 100 µM (inactive) | > 100 µM (inactive) |  | > 100 µM (inactive) | > 100 µM (inactive) | > 100 µM (inactive) | > 100 µM (inactive) | > 100 µM (inactive) | > 100 µM (inactive) | > 100 µM (inactive) | > 100 µM (inactive) | > 100 µM (inactive) | > 100 µM (inactive)
CC(=O)OC1OC(c2ccoc2)C[C@@]12C1CCC3O[C@]3(C)[C@]1(C)[C@H](OC(C)=O)[C@H](OC(C)=O)[C@H]2C (stereo not given in full) | > 37.5 µM (inactive) | > 37.5 µM (inactive) | > 37.5 µM (inactive) | > 37.5 µM (inactive) | > 37.5 | 6.62 µM (inactive) | > 37.5 µM (inactive) | > 37.5 µM (inactive) | 28.1 µM (inactive) | > 37.5 µM (inactive) | > 37.5 µM (inactive) | > 37.5 µM (inactive) | > 37.5 µM (inactive) |  | > 37.5 µM (inactive) | > 37.5 µM (inactive) | > 37.5 µM (inactive) |  | > 37.5 µM (inactive)
CC1(C)OCC(C2OC(OC(=O)c3ccc(C(F)(F)F)cc3)C3OC(C)(C)OC23)O1 (stereo not given) | 46.5 µM (inactive) | > 77.4 µM (inactive) | > 77.4 µM (inactive) | > 77.4 µM (inactive) | > 77.4 |  | 73.1 µM (inactive) | 72.3 µM (inactive) | > 77.4 µM (inactive) | > 77.4 µM (inactive) | 49.5 µM (inactive) | > 77.4 µM (inactive) | > 77.4 µM (inactive) | 45.4 µM (inactive) | 74.5 µM (inactive) | > 77.4 µM (inactive) | > 77.4 µM (inactive) | 40.2 µM (inactive) | > 77.4 µM (inactive)
O=c1[nH]c2c(S)nc(O)nc2n1-c1ccccc1 | > 100 µM (inactive) | > 100 µM (inactive) | > 100 µM (inactive) | > 100 µM (inactive) | > 100 |  | > 100 µM (inactive) | > 100 µM (inactive) | > 100 µM (inactive) | > 100 µM (inactive) | > 100 µM (inactive) | > 100 µM (inactive) | > 100 µM (inactive) | > 100 µM (inactive) | > 100 µM (inactive) | > 100 µM (inactive) | > 100 µM (inactive) |  | > 100 µM (inactive)
CC(=O)N1CCOC12N=NC(C)(C)O2 (stereo not given) | > 100 µM (inactive) | > 100 µM (inactive) | > 100 µM (inactive) | > 100 µM (inactive) | > 100 |  | > 100 µM (inactive) | > 100 µM (inactive) | > 100 µM (inactive) | > 100 µM (inactive) | > 100 µM (inactive) | > 100 µM (inactive) | > 100 µM (inactive) | > 100 µM (inactive) | > 100 µM (inactive) | > 100 µM (inactive) | > 100 µM (inactive) | > 100 µM (inactive) | > 100 µM (inactive)
CC1=NN(c2nc(N)nc(CF)n2)C(C)(C)C1 | > 100 µM (inactive) | > 100 µM (inactive) | > 100 µM (inactive) | > 100 µM (inactive) | > 100 | > 100 µM (inactive) | > 100 µM (inactive) | > 100 µM (inactive) | > 100 µM (inactive) | > 100 µM (inactive) | > 100 µM (inactive) |  | > 100 µM (inactive) | > 100 µM (inactive) | > 100 µM (inactive) |  | > 100 µM (inactive) | > 100 µM (inactive) | > 100 µM (inactive)
COC1C=COC2(C)Oc3c(C)c(O)c4c(O)c(c(C5SCCS5)c(O)c4c3C2=O)NC(=O)C(C)=C/C=C\C(C)C2OC(C)(C)OC(C2C)C(C)C(OC(C)=O)C1C (stereo not given) | 10.1 µM (inactive) | 12.3 µM (inactive) | 3.73 µM (inactive) | 5.05 µM (inactive) | 5.6 | 5.53 µM (inactive) |  | 6.04 µM (inactive) | 5.31 µM (inactive) | 9.31 µM (inactive) | 4.21 µM (inactive) | 4.78 µM (inactive) | 5.15 µM (inactive) | 7.33 µM (inactive) | 3.77 µM (inactive) | 4.3 µM (inactive) | 16.4 µM (inactive) | 42.3 µM (inactive) | 4.02 µM (inactive)
Cn1c(=O)c2c(nc(-n3nc(-c4ccc(Cl)cc4)cc3N)n2C)n(C)c1=O | 6.9 µM (inactive) | > 100 µM (inactive) | 44.5 µM (inactive) | 19.1 µM (inactive) | > 100 | > 100 µM (inactive) | > 100 µM (inactive) | > 100 µM (inactive) |  | > 100 µM (inactive) | > 100 µM (inactive) | > 100 µM (inactive) | 18.1 µM (inactive) | 9.91 µM (inactive) | 6.37 µM (inactive) | > 100 µM (inactive) | > 100 µM (inactive) |  | 65.6 µM (inactive)
O=C(CCc1cc(O)ccc1O)OCCc1ccccc1 | 9.53 µM (inactive) | > 100 µM (inactive) | 11.5 µM (inactive) | 13 µM (inactive) | 11.1 | 0.718 µM (active) | 41.1 µM (inactive) | 8.53 µM (inactive) |  | 23.4 µM (inactive) | 44.8 µM (inactive) |  | 12.7 µM (inactive) | 5.64 µM (inactive) | 22.2 µM (inactive) | 16.8 µM (inactive) | 48.5 µM (inactive) | > 64.1 µM (inactive) | 12.4 µM (inactive)
COC(=O)C1(C)C=CC(=O)C2(C)C1C(O)C1OC3CC(c4ccoc4)C(C)=C3C1(C)C2CC(=O)O (stereo not given) | > 100 µM (inactive) | > 100 µM (inactive) | > 100 µM (inactive) | > 100 µM (inactive) | > 100 | > 100 µM (inactive) |  | > 100 µM (inactive) | > 100 µM (inactive) | > 100 µM (inactive) | > 100 µM (inactive) | > 100 µM (inactive) | > 100 µM (inactive) | > 100 µM (inactive) | > 100 µM (inactive) | > 100 µM (inactive) | > 100 µM (inactive) | > 100 µM (inactive) | > 100 µM (inactive)
